35 compounds from ChEMBL document CHEMBL4028802, “DILIrank: the largest reference drug list ranked by the risk for developing drug-induced liver injury in humans” (Drug Discov Today, 2016) can be followed below.

Series [1] is filed under the species Homo sapiens. Nature of the series: Liver toxicity in human assessed as induction of drug-induced liver injury by measuring severity class index.
For series [2], the species on record is Homo sapiens. Nature of the series: Liver toxicity in human assessed as induction of drug-induced liver injury by measuring verified drug-induced liver injury concern status.
For DILI severity class in this document: key of the grades not given here.

Consider `C=CC[C@@H]1/C=C(\C)C[C@H](C)C[C@H](OC)[C@H]2O[C@@](O)(C(=O)C(=O)N3CCCC[C@H]3C(=O)O[C@H](/C(C)=C/[C@@H]3CC[C@@H](O)[C@H](OC)C3)[C@H](C)[C@@H](O)CC1=O)[C@H](C)C[C@@H]2OC` [TACROLIMUS ANHYDROUS], for which, in the series filed under Homo sapiens [1], the DILI_severity_class came out at 5. Moreover, the DILI_Concern entry in the series filed under Homo sapiens [2] is reported as “Less-Dili-Concern”.
Consider `NC(=O)NO` [HYDROXYUREA], for which the DILI_severity_class in the series filed under Homo sapiens [1] was found to be 8. In addition, in the series filed under Homo sapiens [2], the DILI_Concern result is listed as “Most-Dili-Concern”.
In the case of `CCC(C)n1ncn(-c2ccc(N3CCN(c4ccc(OCC5COC(Cn6cncn6)(c6ccc(Cl)cc6Cl)O5)cc4)CC3)cc2)c1=O` (stereo not given) [ITRACONAZOLE], in the series listed under Homo sapiens [1], the DILI_severity_class is given as 8. Further, in the series filed under Homo sapiens [2], the DILI_Concern entry is given as “Most-Dili-Concern”.
The matching figures for `O=P(O)(O)C(Sc1ccc(Cl)cc1)P(=O)(O)O` [TILUDRONIC ACID]: 0 and “No-Dili-Concern”.
The matching figures for `CC[C@H]1OC(=O)[C@H](C)C(=O)[C@H](C)[C@@H](O[C@@H]2O[C@H](C)C[C@H](N(C)C)[C@H]2O)[C@](C)(OC)C[C@@H](C)C(=O)[C@H](C)[C@H]2N(CCCCn3cnc(-c4cccnc4)c3)C(=O)O[C@]12C` [TELITHROMYCIN]: 8 and “Most-Dili-Concern”.
The matching figures for `CCCCC[C@H](O)/C=C/[C@@H]1[C@H]2C/C(=C/CCCC(=O)O)O[C@H]2C[C@H]1O` [EPOPROSTENOL]: 7 and “Ambiguous-Dili-Concern”.
`COC1=CC(=O)C[C@@H](C)[C@]12Oc1c(Cl)c(OC)cc(OC)c1C2=O` [GRISEOFULVIN]: the DILI_severity_class in the series filed under Homo sapiens [1] was 8. For the same compound, the DILI_Concern entry in the series listed under Homo sapiens [2] is recorded as “Most-Dili-Concern”.
`Cc1onc(-c2ccccc2)c1-c1ccc(S(N)(=O)=O)cc1` [VALDECOXIB]: the DILI_severity_class in the series filed under Homo sapiens [1] worked out at 3. In addition, in the series filed under Homo sapiens [2], the DILI_Concern result was “Less-Dili-Concern”.
`CCN(CC)CC#CCOC(=O)C(O)(c1ccccc1)C1CCCCC1` (stereo not given) [OXYBUTYNIN]: in the series filed under Homo sapiens [1], the DILI_severity_class is 0. The DILI_Concern entry in the series filed under Homo sapiens [2] is listed as “No-Dili-Concern”.
The matching figures for `C[C@H](CS)C(=O)N1CCC[C@H]1C(=O)O` [CAPTOPRIL]: 7 and “Less-Dili-Concern”.
The matching figures for `CC[C@@H]([C@H](C)O)n1ncn(-c2ccc(N3CCN(c4ccc(OC[C@@H]5CO[C@@](Cn6cncn6)(c6ccc(F)cc6F)C5)cc4)CC3)cc2)c1=O` [POSACONAZOLE]: 8 and “Ambiguous-Dili-Concern”.
The matching figures for LANTHANUM CARBONATE: 0 and “No-Dili-Concern”.
For the compound `C[C@H]1C[C@@H]2[C@H]([C@@H](O)C[C@@]3(C)[C@H]2CC[C@]3(O)C(=O)CO)[C@@]2(C)C=CC(=O)C=C12` [METHYLPREDNISOLONE], the DILI_severity_class in the series filed under Homo sapiens [1] is given as 3. For the same compound, the DILI_Concern result in the series filed under Homo sapiens [2] is on record as “Less-Dili-Concern”.
The matching figures for `CCN(CC)C(=O)/C(C#N)=C/c1cc(O)c(O)c([N+](=O)[O-])c1` [ENTACAPONE]: 0 and “Less-Dili-Concern”.
`CO[C@@]1(NC(=O)Cc2cccs2)C(=O)N2C(C(=O)O)=C(COC(N)=O)CS[C@@H]21` [CEFOXITIN]: the DILI_severity_class in the series filed under Homo sapiens [1] is reported as 3. For the same compound, the DILI_Concern entry in the series listed under Homo sapiens [2] is “Ambiguous-Dili-Concern”.
The matching figures for `Nc1ccc(C(=O)O)c(O)c1` [AMINOSALICYLIC ACID]: 5 and “Most-Dili-Concern”.
On to `CC(C(=O)O)c1ccc2oc(-c3ccc(Cl)cc3)nc2c1` (stereo not given) [BENOXAPROFEN], for which the DILI_severity_class in the series listed under Homo sapiens [1] stood at 8. For the same compound, the DILI_Concern entry in the series filed under Homo sapiens [2] was “Most-Dili-Concern”.
Turning to `CCOc1cc(CC(=O)N[C@@H](CC(C)C)c2ccccc2N2CCCCC2)ccc1C(=O)O` [REPAGLINIDE], in the series filed under Homo sapiens [1], the DILI_severity_class was determined as 5. For the same compound, the DILI_Concern result in the series filed under Homo sapiens [2] is “Less-Dili-Concern”.
In the case of `Nc1nc(=O)n([C@@H]2CS[C@H](CO)O2)cc1F` [EMTRICITABINE], the DILI_severity_class in the series listed under Homo sapiens [1] is 2. In addition, in the series filed under Homo sapiens [2], the DILI_Concern entry is “Ambiguous-Dili-Concern”.
As to `CC(C)(C)NCC(O)c1cc(O)cc(O)c1` (stereo not given) [TERBUTALINE], the DILI_severity_class in the series listed under Homo sapiens [1] was determined as 3. In addition, in the series filed under Homo sapiens [2], the DILI_Concern result is listed as “Less-Dili-Concern”.
The matching figures for `CC(C)(O/N=C(\C(=O)N[C@@H]1C(=O)N2C(C(=O)[O-])=C(C[n+]3ccccc3)CS[C@H]12)c1csc(N)n1)C(=O)O` [CEFTAZIDIME]: 3 and “Less-Dili-Concern”.
On to `CCCN(CCC)C(=O)Cc1c(-c2ccc(Cl)cc2)nc2ccc(Cl)cn12` [ALPIDEM], for which, in the series listed under Homo sapiens [1], the DILI_severity_class was 8. Moreover, in the series listed under Homo sapiens [2], the DILI_Concern entry is given as “Most-Dili-Concern”.
Take `NS(=O)(=O)c1cc(Cl)c(Cl)c(S(N)(=O)=O)c1` [DICHLORPHENAMIDE]: the DILI_severity_class in the series listed under Homo sapiens [1] is 0. Further, the DILI_Concern entry in the series listed under Homo sapiens [2] was “No-Dili-Concern”.
Take `CN1C(=O)CCS(=O)(=O)C1c1ccc(Cl)cc1` (stereo not given) [CHLORMEZANONE]: the DILI_severity_class in the series filed under Homo sapiens [1] worked out at 8. The DILI_Concern result in the series listed under Homo sapiens [2] is given as “Most-Dili-Concern”.
The matching figures for `CO[C@H]1C[C@@H]2CC[C@@H](C)[C@@](O)(O2)C(=O)C(=O)N2CCCC[C@H]2C(=O)O[C@H]([C@H](C)C[C@@H]2CC[C@@H](OC(=O)C(C)(CO)CO)[C@H](OC)C2)CC(=O)[C@H](C)/C=C(\C)[C@@H](O)[C@@H](OC)C(=O)[C@H](C)C[C@H](C)/C=C/C=C/C=C/1C` [TEMSIROLIMUS]: 0 and “No-Dili-Concern”.
Take `CC(C)(C)NCC(O)c1ccc(O)c(CO)c1` (stereo not given) [ALBUTEROL]: the DILI_severity_class in the series filed under Homo sapiens [1] was found to be 0. In addition, in the series filed under Homo sapiens [2], the DILI_Concern entry is “No-Dili-Concern”.
The matching figures for `O=C1[C@H](CC[C@H](O)c2ccc(F)cc2)[C@@H](c2ccc(O)cc2)N1c1ccc(F)cc1` [EZETIMIBE]: 3 and “Less-Dili-Concern”.
The matching figures for `CCCCCc1cc(O)c2c(c1)OC(C)(C)[C@@H]1CCC(C)=C[C@@H]21` [DRONABINOL]: 3 and “Ambiguous-Dili-Concern”.
For the compound `O=C1CN2Cc3c(ccc(Cl)c3Cl)N=C2N1` [ANAGRELIDE], in the series filed under Homo sapiens [1], the DILI_severity_class turned out to be 3. Besides, the DILI_Concern result in the series listed under Homo sapiens [2] is given as “Ambiguous-Dili-Concern”.
Turning to `COc1ccnc(C[S+]([O-])c2nc3ccc(OC(F)F)cc3[nH]2)c1OC` (stereo not given) [PANTOPRAZOLE], the DILI_severity_class in the series listed under Homo sapiens [1] is on record as 3. The DILI_Concern entry in the series filed under Homo sapiens [2] was “Less-Dili-Concern”.
The matching figures for `CNS(=O)(=O)CCc1ccc2[nH]cc(C3CCN(C)CC3)c2c1`: 4 and “Ambiguous-Dili-Concern”.
The matching figures for `CN(C)CCCC1c2ccccc2Nc2ccc(Cl)cc21` (stereo not given) [CLOMACRAN]: 8 and “Most-Dili-Concern”.
The matching figures for `CCCN[C@H]1CCc2nc(N)sc2C1` [PRAMIPEXOLE]: 2 and “Ambiguous-Dili-Concern”.
Regarding `Nc1ncnc2c1ncn2CCOCP(=O)(O)O` [ADEFOVIR], in the series listed under Homo sapiens [1], the DILI_severity_class was determined as 2. Further, the DILI_Concern result in the series filed under Homo sapiens [2] was “Less-Dili-Concern”.
Turning to `NS(=O)(=O)c1cc2c(cc1C(F)(F)F)NCNS2(=O)=O` [HYDROFLUMETHIAZIDE], the DILI_severity_class in the series filed under Homo sapiens [1] is listed as 2. In addition, the DILI_Concern result in the series listed under Homo sapiens [2] was “Ambiguous-Dili-Concern”.
